Source: US20020099241A1, “Alpha-sulfin-and alpha-sulfonamino acid amides” (priority 1998, published 2002)

Tests used:
Plasmopara viticola = test: D-1: Action against Plasmopara viticola on vines (residual-protective and residual-curative); type: in vivo; details: vine seedlings, spray mixture 0.02% active ingredient, evaluated 6 days after infection; protective/curative not distinguished
Description: D-1: Action Against Plasmopara viticola on Vines a) Residual-Protective Action
Vine seedlings are sprayed at the 4- to 5-leaf stage with a spray mixture (0.02% active ingredient) prepared from a wettable powder formulation of the test compound. After 24 hours, the treated plants are infected with a sporangia suspension of the fungus. Fungus infestation is evaluated after incubation for 6 days at 95-100% relative humidity and 20° C. […]
b) Residual-Curative Action
Vine seedlings are infected at the 4- to 5-leaf stage with a sporangia suspension of the fungus. After incubation for 24 hours in a humidity chamber at 95-100% relative humidity and 20° C., the infected plants are dried and sprayed with a spray mixture (0.02% active ingredient) prepared from a wettable powder formulation of the test compound. After the spray coating has dried, the treated plants are placed in the humidity chamber again. Fungus infestation is evaluated 6 days after infection.

Phytophthora [1] = test: D-2: Action against Phytophthora on tomato plants (residual-protective and systemic); type: in vivo; details: spray or soil watering 0.02% active ingredient, evaluated 4-5 days after infection, protective/systemic not distinguished
Description: D-2: Action Against Phytophthora on Tomato Plants
(§1) a) Residual-Protective Action
(§2) After a cultivation period of 3 weeks, tomato plants are sprayed with a spray mixture (0.02% active ingredient) prepared from a wettable powder formulation of the test compound. After 48 hours, the treated plants are infected with a sporangia suspension of the fungus. Fungus infestation is evaluated after incubation of the infected plants for 5 days at 90-100% relative humidity and 20° C.
as §2, with “watered” for “sprayed”, “ingredient based on the volume of the soil)” for “ingredient)”, “compound. […]” for “compound.”, “96” for “48”, “4” for “5”

Phytophthora [2] = test: D-3: Action against Phytophthora on potato plants (residual-protective and systemic); type: in vivo; details: potato plants (Bintje variety), spray or soil watering 0.02% active ingredient, evaluated 4 days after infection; protective/systemic not distinguished
Description: D-3: Action Against Phytophthora on Potato Plants
as §1
(§3) 2-3 week old potato plants (Bintje variety) are sprayed with a spray mixture (0.02% active ingredient) prepared from a wettable powder formulation of the test compound. After 48 hours, the treated plants are infected with a sporangia suspension of the fungus. Fungus infestation is evaluated after incubation of the infected plants for 4 days at 90-100% relative humidity and 20° C.
as §3, with “watered” for “sprayed”, “ingredient based on the volume of the soil)” for “ingredient)”, “compound. […]” for “compound.”, “C. Fungal infestation is effectively controlled with compounds of Tables 1 to 37.” for “C.”

SMILES | Fungus infestation (Plasmopara viticola) | Fungus infestation (Phytophthora [1]) | Fungus infestation (Phytophthora [2]) | melting point [°C]
CCS(=O)(=O)N[C@H](C(=O)NCCc1ccc(OCC(C)c2ccc(F)cc2)c(OC)c1)C(C)C (stereo partly drawn) [Compound A1.01, (S)-2-Ethanesulfonylamino-N-(2-{4-[2-(4-fluoro-phenyl)-propoxy]-3-methoxy-phenyl}-ethyl)-3-methyl-butyramide] | completely inhibit fungal infestation | completely inhibit fungal infestation | completely inhibit fungal infestation | 107 to 111
CCS(=O)(=O)N[C@H](C(=O)NCCc1ccc(OCCCc2cccc(C(F)(F)F)c2)c(OC)c1)C(C)C |  |  |  | 119 to 120
COc1cc(CCNC(=O)[C@@H](NS(C)(=O)=O)C(C)C)ccc1OCCCc1ccc(Cl)cc1 |  |  |  | 128 to 130
